According to patent publication US8546608B2, “Proteasome inhibitors and methods of using the same” (Cephalon, Inc., priority 2003, dated 2013):

Assays:
[1] = molecular target: T1, proteasome in Molt-4 cells (human leukemia) (Homo sapiens, UniProt P20618+P28074); format: cell-based; conditions: assay of Example E, inhibition of MOLT4; read-out: MOLT4 (EC50)
T1 sequence (P28074 60-263): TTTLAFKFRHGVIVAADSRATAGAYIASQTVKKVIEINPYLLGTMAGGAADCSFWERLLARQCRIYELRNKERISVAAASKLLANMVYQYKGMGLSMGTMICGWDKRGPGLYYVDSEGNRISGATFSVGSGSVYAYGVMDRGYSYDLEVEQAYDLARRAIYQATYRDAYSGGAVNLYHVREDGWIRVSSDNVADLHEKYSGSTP
T1 sequence (P20618 29-241): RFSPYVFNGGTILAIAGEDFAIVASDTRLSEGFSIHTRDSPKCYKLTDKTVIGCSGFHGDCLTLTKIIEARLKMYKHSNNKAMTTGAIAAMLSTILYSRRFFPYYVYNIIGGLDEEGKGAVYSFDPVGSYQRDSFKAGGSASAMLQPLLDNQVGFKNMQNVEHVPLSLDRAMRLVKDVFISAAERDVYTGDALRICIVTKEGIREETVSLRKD
Summary of the method: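 Intact Molt-4 cells (6×10^6 cells/mL) in HEPES-buffered saline were preincubated with inhibitor 15 min at 37 °C, then given cell-permeable MeOSuc-FLF-AFC at 25 μM final.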

[2] = molecular target: T2, 20S Human Erythrocyte Proteasome (HEP) (Homo sapiens, UniProt P20618+P28074); assay: Chymotrypsin-like activity of 20S Human Erythrocyte Proteasome (HEP), IC50 determination; format: biochemical; conditions: assay of Example C, inhibition of HEP
T2 construct: 20S Human Erythrocyte Proteasome (HEP), purchased from Immatics Biotechnologies Inc; purchased Immatics Biotechnologies Inc., Tübingen, Germany; host or cells: human erythrocytes (natural source)
Summary of the method: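 20S proteasome at 0.2 μg/mL (about 0.6 nM catalytic sites) in 20 mM Tris with 0.04% SDS, preincubated 15 min at 37° C with inhibitor before Suc-LLVY-AMC (100 μM final). AMC fluorescence read in the linear range; triplicates, IC50 from concentration series.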

EC50 [1] [nM]	IC50 [2] [nM]	Structure (SMILES)
< 200	< 10	CCCCCCCCCC(=O)N[C@@H](CC(N)=O)C(=O)N[C@@H](CC(C)C)B1O[C@@H]2C[C@@H]3C[C@@H](C3(C)C)[C@]2(C)O1 [D.8.19, Decanamide, N-[(1S)-1-[[[(1R)-1-[(3aS,4S,6S,7aR)-hexahydro-3a,5,5-trimethyl-4,6-methano-1,3,2-benzodioxaborol-2-yl]-3-methylbutyl]amino]carbonyl]-2-carbamoylethyl]]
< 200	< 10	CCCCc1ccc(C(=O)N[C@@H](CC(N)=O)C(=O)N[C@@H](CC(C)C)B2O[C@@H]3C[C@@H]4C[C@@H](C4(C)C)[C@]3(C)O2)cc1 [D.8.20, 4-Butylbenzamide, N-[(1S)-1-[[[(1R)-1-[(3aS,4S,6S,7aR)-hexahydro-3a,5,5-trimethyl-4,6-methano-1,3,2-benzodioxaborol-2-yl]-3-methylbutyl]amino]carbonyl]-2-carbamoylethyl]]
< 200	< 10	CCCCCCCCCC(=O)N[C@@H](CNC(=O)c1ccc(C)cc1)C(=O)N[C@@H](CC(C)C)B1O[C@@H]2C[C@@H]3C[C@@H](C3(C)C)[C@]2(C)O1 [D.9, Decanamide, N-[(1S)-1-[[[(1R)-1-[(3aS,4S,6S,7aR)-hexahydro-3a,5,5-trimethyl-4,6-methano-1,3,2-benzodioxaborol-2-yl]-3-methylbutyl]amino]carbonyl]-2-[(4-methylbenzoyl)amino]ethyl]-]
< 200	< 10	CCCCCCCCCC(=O)N[C@@H](CNC(=O)Cc1ccc(OC)c(OC)c1)C(=O)N[C@@H](CC(C)C)B1O[C@@H]2C[C@@H]3C[C@@H](C3(C)C)[C@]2(C)O1 [D.12, 2-S-Decanoylamino-3-(3,4-dimethoxyphenylacetamido)propionamide, N-[(1S)-1-[[(1R)-1-[(3aS,4S,6S,7aR)-hexahydro-3a,5,5-trimethyl-4,6-methano-1,3,2-benzodioxaborol-2-yl]-3-methylbutyl]amino]carbonyl]]
< 200	< 10	CCCCc1ccc(C(=O)N[C@@H](CNC(=O)c2cnccn2)C(=O)N[C@@H](CC(C)C)B2O[C@@H]3C[C@@H]4C[C@@H](C4(C)C)[C@]3(C)O2)cc1 [D.18, 2-S-(4-Butylbenzoylamino)-3-(2-pyrazinocarbonylamino)-N-[(1S)-1-[[(1R)-1-[(3aS,4S,6S,7aR)-hexahydro-3a,5,5-trimethyl-4,6-methano-1,3,2-benzodioxaborol-2-yl]-3-methylbutyl]amino]carbonyl]]
< 200	< 10	CCCCc1ccc(C(=O)N[C@@H](CNS(=O)(=O)c2ccc(F)cc2)C(=O)N[C@@H](CC(C)C)B2O[C@@H]3C[C@@H]4C[C@@H](C4(C)C)[C@]3(C)O2)cc1 [D.19, 4-Butylbenzamide, N-[(1S)-1-[[[(1R)-1-[(3aS,4S,6S,7aR)-hexahydro-3a,5,5-trimethyl-4,6-methano-1,3,2-benzodioxaborol-2-yl]-3-methylbutyl]amino]carbonyl]-2-[4-fluoro-benzenesulfonammide]ethyl]-]
< 200	< 10	CCCCc1ccc(C(=O)N[C@@H](CNC(=O)c2cccs2)C(=O)N[C@@H](CC(C)C)B2O[C@@H]3C[C@@H]4C[C@@H](C4(C)C)[C@]3(C)O2)cc1 [D.24.8, 4-butylbenzamide, N-[(1S)-1-[[[(1R)-1-[(3aS,4S,6S,7aR)-hexahydro-3a,5,5-trimethyl-4,6-methano-1,3,2-benzodioxaborol-2-yl]-3-methylbulyl]amino]carbonyl]-2-[(thien-2-ylcarbonyl)amino]ethyl]-]
< 200	< 10	CCCCCC(=O)NC[C@H](NC(=O)c1ccc(CCCC)cc1)C(=O)N[C@@H](CC(C)C)B1O[C@@H]2C[C@@H]3C[C@@H](C3(C)C)[C@]2(C)O1 [D.24.10, 4-butylbenzamide, N-[(1S)-1-[[[(1R)-1-[(3aS,4S,6S,7aR)-hexahydro-3a,5,5-trimethyl-4,6-methano-1,3,2-benzodioxaborol-2-yl]-3-methylbutyl]amino]carbonyl]-2-(hexanonylamino)ethyl]-]
< 200	< 10	CCCCc1ccc(C(=O)N[C@@H](CNC(=O)C2CC2)C(=O)N[C@@H](CC(C)C)B2O[C@@H]3C[C@@H]4C[C@@H](C4(C)C)[C@]3(C)O2)cc1 [D.24.11]
< 200	< 10	CCCCc1ccc(C(=O)N[C@@H](CNC(=O)Nc2ccccc2)C(=O)N[C@@H](CC(C)C)B2O[C@@H]3C[C@@H]4C[C@@H](C4(C)C)[C@]3(C)O2)cc1 [D.24.12, 4-Butylbenzamide, N-[(1S)-1-[[[(1R)-1-[(3aS,4S,6S,7aR)-hexahydro-3a,5,5-trimethyl-4,6-methano-1,3,2-benzodioxaborol-2-yl]-3-methylbutyl]amino]carbonyl]-2-(3-phenyl-ureido)ethyl]-]
< 200	< 10	CCCCc1ccc(C(=O)N[C@@H](CNC(=O)Cc2ccc(OC)c(OC)c2)C(=O)N[C@@H](CC(C)C)B2O[C@@H]3C[C@@H]4C[C@@H](C4(C)C)[C@]3(C)O2)cc1 [D.24.14]
< 200	< 10	CCCCc1ccc(C(=O)N[C@@H](CNC(=O)c2cccnc2)C(=O)N[C@@H](CC(C)C)B2O[C@@H]3C[C@@H]4C[C@@H](C4(C)C)[C@]3(C)O2)cc1 [D.24.15, 4-butylbenzamide, N-[(1S)-1-[[[(1R)-1-[(3aS,4S,6S,7aR)-hexahydro-3a,5,5-trimethyl-4,6-methano-1,3,2-benzodioxaborol-2-yl]-3-methylbutyl]amino]carbonyl]-2-(nicotinonylamino)ethyl]-]
> 10000	< 10	CCOC(=O)/C=C/C(=O)N[C@@H](CCCNC(=N)N[N+](=O)[O-])C(=O)N[C@@H](CC(C)C)B(O)O [E.1.1, Boronic acid, [(1R)-1-[[(2S)-5-[[imino(nitroamino)methyl]amino]-2-[((2E)-3-ethoxycarbonyl-1-oxoprop-2-enyl)amino]-1-oxopentyl]amino]-3-methylbutyl]]
2000 to 10000	< 10	CC(C)C[C@H](NC(=O)[C@H](CCCNC(=N)N[N+](=O)[O-])NC(=O)c1cnccn1)B(O)O [E.1.2, Boronic acid, [(1R)-1-[[(2S)-5-[[imino(nitroamino)methyl]amino]-2-[(2-pyrazine-carbonyl)amino]-1-oxopentyl]amino]-3-methylbutyl]]
200 to 2000	< 10	CCCCc1ccc(C(=O)N[C@@H](CCCNC(=N)N[N+](=O)[O-])C(=O)N[C@@H](CC(C)C)B(O)O)cc1 [E.1.3, Boronic acid, [(1R)-1-[[(2S)-5-[[imino(nitroamino)methyl]amino]-2-[(4-butyl-benzoyl)amino]-1-oxopentyl]amino]-3-methylbutyl]]
200 to 2000	< 10	CC(C)C[C@H](NC(=O)[C@H](CCCNC(=N)N[N+](=O)[O-])NC(=O)c1ccc2ccccc2c1)B(O)O [E.1.4, Boronic acid, [(1R)-1-[[(2S)-5-[[imino(nitroamino)methyl]amino]-2-[(2-naphthoyl)amino]-1-oxopentyl]amino]-3-methylbutyl]]
> 10000	< 10	CC(C)C[C@H](NC(=O)[C@H](CCCNC(=N)N[N+](=O)[O-])NC(=O)CCN1C(=O)c2ccccc2C1=O)B(O)O [E.1.5]
